According to patent publication US10681909B2, “Herbicidal triazoles” (FMC Corporation, priority 2014, dated 2020):

Columns and labels:
Details in all cases: scale 0 to 100
sandbur = experiment: Test E postemergence; format: in vivo, Cenchrus echinatus
From the text: (§1) Seeds of plant species selected from corn (Zea mays), soybean (Glycine max), lambsquarters (Chenopodium album), poinsettia, wild (wild poinsettia, Euphorbia heterophylla), pigweed, palmer (palmer pigweed, Amaranthus palmeri), waterhemp (common waterhemp, Amaranthus rudis), surinam grass (Brachiaria decumbens), crabgrass, large (large crabgrass, Digitaria sanguinalis), crabgrass, Brazilian (Brazilian crabgrass, Digitaria horizontalis), panicum, fall (fall panicum, Panicum dichotomiflorum), foxtail, giant (giant foxtail, Setaria faberii), foxtail, green (green foxtail, Setaria viridis), goosegrass (Eleusine indica), johnsongrass (Sorghum halepense), ragweed (common ragweed, Ambrosia elatior), barnyardgrass (Echinochloa crus-galli), sandbur (southern sandbur, Cenchrus echinatus), arrowleaf sida (Sida rhombifolia), ryegrass, Italian (Italian ryegrass, Lolium multiflorum), dayflower, VA (Virginia dayflower, Commelina virginica), field bindweed (Convolvulus arvensis), cocklebur (common cocklebur, Xanthium strumarium), morningglory (Ipomoea coccinea), nightshade (eastern black nightshade, Solanum ptycanthum), kochia (Kochia scoparia), nutsedge, yellow (yellow nutsedge, Cyperus esculentus), smartweed (ladysthumb smartweed, Polygonum persicaria), velvetleaf (Abutilon theophrasti), horseweed (Conyza canadensis), and beggarticks (hairy beggarticks, Bidens pilosa), were planted into a silt loam soil and treated preemergence with test chemicals formulated in a non-phytotoxic solvent mixture which included a surfactant.
(§2) At the same time, plants from these crop and weed species and also waterhemp_RES1, (ALS & Triazine resistant common waterhemp, Amaranthus rudis), and waterhemp_RES2, (ALS & HPPD resistant common waterhemp, Amaranthus rudis) were planted in pots containing Sunshine Redi-Earth® planting medium comprising spaghnum peat moss, vermiculite, starter nutrients and dolomitic limestone were treated with postemergence applications of test chemicals formulated in the same manner. Plants ranged in height from 2 to 18 cm for postemergence treatments (1- to 4-leaf stage). Treated plants and controls were maintained in a greenhouse for 14 to 21 d, after which time all species were compared to controls and visually evaluated. Plant response ratings, summarized in Table E, are based on a scale of 0 to 100 where 0 is no effect and 100 is complete control. A dash (-) response means no test result.

field bindweed [1] = experiment: Test E postemergence; format: in vivo, Convolvulus arvensis
From the text: as §1, §2

arrowleaf sida [2] = experiment: Test E postemergence; format: in vivo, Sida rhombifolia
From the text: as §1, §2

corn = experiment: Test E postemergence; format: in vivo, Zea mays
From the text: as §1, §2

panicum, fall = experiment: Test E postemergence; format: in vivo, Panicum dichotomiflorum
From the text: as §1, §2

waterhemp = experiment: Test E postemergence; format: in vivo, Amaranthus rudis
From the text: as §1, §2

[3] = tested on: waterhemp_RES1 (ALS & Triazine resistant common waterhemp); experiment: Test E postemergence; format: in vivo, Amaranthus rudis
From the text: as §1, §2

[4] = tested on: waterhemp_RES2 (ALS & HPPD resistant common waterhemp); experiment: Test E postemergence; format: in vivo, Amaranthus rudis
From the text: as §1, §2

soybean = experiment: Test E postemergence; format: in vivo, Glycine max
From the text: as §1, §2

beggarticks = experiment: Test E postemergence; format: in vivo, Bidens pilosa
From the text: as §1, §2

barnyardgrass [5] = experiment: Test E postemergence; format: in vivo, Echinochloa crus-galli
From the text: as §1, §2

nightshade = experiment: Test E preemergence; format: in vivo, Solanum ptycanthum
From the text: as §1, §2

lambsquarters = experiment: Test E preemergence; format: in vivo, Chenopodium album
From the text: as §1, §2

arrowleaf sida [6] = experiment: Test E preemergence; format: in vivo, Sida rhombifolia
From the text: as §1, §2

pigweed, palmer = experiment: Test E preemergence; format: in vivo, Amaranthus palmeri
From the text: as §1, §2

barnyardgrass [7] = experiment: Test E preemergence; format: in vivo, Echinochloa crus-galli
From the text: as §1, §2

johnsongrass = experiment: Test E preemergence; format: in vivo, Sorghum halepense
From the text: as §1, §2

velvetleaf = experiment: Test E preemergence; format: in vivo, Abutilon theophrasti
From the text: as §1, §2

goosegrass = experiment: Test E preemergence; format: in vivo, Eleusine indica
From the text: as §1, §2

field bindweed [8] = experiment: Test E preemergence; format: in vivo, Convolvulus arvensis
From the text: as §1, §2

In the case of `COc1nc(-c2ccc(Cl)cc2)nn1Cc1ccnc(C(F)(F)F)c1` [Compound 28], the Plant response rating (sandbur; 31 g ai/ha) is reported as 20, the Plant response rating (sandbur; 62 g ai/ha) is reported as 30 and the Plant response rating (sandbur; 125 g ai/ha) is reported as 30. It also gave a Plant response rating (sandbur; 250 g ai/ha) of 40, a Plant response rating (field bindweed [1]; 31 g ai/ha) of 50 and a Plant response rating (field bindweed [1]; 62 g ai/ha) of 75. The Plant response rating (field bindweed [1]; 125 g ai/ha) was 80, the Plant response rating (field bindweed [1]; 250 g ai/ha) was 80 and the Plant response rating (arrowleaf sida [2]; 31 g ai/ha) was 70. For the same molecule, the Plant response rating (arrowleaf sida [2]; 62 g ai/ha) was 80, the Plant response rating (arrowleaf sida [2]; 125 g ai/ha) was 80 and the Plant response rating (arrowleaf sida [2]; 250 g ai/ha) was 75. For the same molecule, the Plant response rating (corn; 31 g ai/ha) was 15, the Plant response rating (corn; 62 g ai/ha) was 20 and the Plant response rating (corn; 125 g ai/ha) was 20. It also gave a Plant response rating (corn; 250 g ai/ha) of 30, a Plant response rating (panicum, fall; 31 g ai/ha) of 15 and a Plant response rating (panicum, fall; 62 g ai/ha) of 20. For the same molecule, the Plant response rating (panicum, fall; 125 g ai/ha) was 20, the Plant response rating (panicum, fall; 250 g ai/ha) was 20 and the Plant response rating (waterhemp; 31 g ai/ha) was 90. The Plant response rating (waterhemp; 62 g ai/ha) was 90, the Plant response rating (waterhemp; 125 g ai/ha) was 95 and the Plant response rating (waterhemp; 250 g ai/ha) was 95. It also gave a Plant response rating ([3]; 31 g ai/ha) of 95, a Plant response rating ([3]; 62 g ai/ha) of 95 and a Plant response rating ([3]; 125 g ai/ha) of 95. For the same molecule, the Plant response rating ([3]; 250 g ai/ha) was 95, the Plant response rating ([4]; 31 g ai/ha) was 95 and the Plant response rating ([4]; 62 g ai/ha) was 90. It also gave a Plant response rating ([4]; 125 g ai/ha) of 90, a Plant response rating ([4]; 250 g ai/ha) of 95 and a Plant response rating (soybean; 31 g ai/ha) of 70. The Plant response rating (soybean; 62 g ai/ha) was 75, the Plant response rating (soybean; 125 g ai/ha) was 95 and the Plant response rating (soybean; 250 g ai/ha) was 80. The Plant response rating (beggarticks; 31 g ai/ha) was 50, the Plant response rating (beggarticks; 62 g ai/ha) was 60 and the Plant response rating (beggarticks; 125 g ai/ha) was 50. The Plant response rating (beggarticks; 250 g ai/ha) was 60, the Plant response rating (barnyardgrass [5]; 31 g ai/ha) was 20 and the Plant response rating (barnyardgrass [5]; 62 g ai/ha) was 25. The Plant response rating (barnyardgrass [5]; 125 g ai/ha) was 40 and the Plant response rating (barnyardgrass [5]; 250 g ai/ha) was 40.

`CCOc1nc(-c2ccc(F)cc2)nn1Cc1ccnc(C(F)(F)F)c1` [Compound 8, 4-[[5-ethoxy-3-(4-fluorophenyl)-1H-1,2,4-triazol-1-yl]methyl]-2-(trifluoromethyl)pyridine] gave a Plant response rating (nightshade; 62 g ai/ha) of 98, a Plant response rating (nightshade; 125 g ai/ha) of 100 and a Plant response rating (lambsquarters; 62 g ai/ha) of 100. For the same molecule, the Plant response rating (lambsquarters; 125 g ai/ha) was 100, the Plant response rating (arrowleaf sida [6]; 62 g ai/ha) was 65 and the Plant response rating (arrowleaf sida [6]; 125 g ai/ha) was 98. The Plant response rating (pigweed, palmer; 62 g ai/ha) was 100, the Plant response rating (pigweed, palmer; 125 g ai/ha) was 100 and the Plant response rating (barnyardgrass [7]; 62 g ai/ha) was 75. The Plant response rating (barnyardgrass [7]; 125 g ai/ha) was 95, the Plant response rating (johnsongrass; 62 g ai/ha) was 65 and the Plant response rating (johnsongrass; 125 g ai/ha) was 100. For the same molecule, the Plant response rating (velvetleaf; 62 g ai/ha) was 50, the Plant response rating (velvetleaf; 125 g ai/ha) was 98 and the Plant response rating (goosegrass; 62 g ai/ha) was 100. The Plant response rating (goosegrass; 125 g ai/ha) was 100, the Plant response rating (field bindweed [8]; 62 g ai/ha) was 70 and the Plant response rating (field bindweed [8]; 125 g ai/ha) was 95.

`CCCc1nc(-c2ccc(F)cc2)nn1Cc1ccnc(C(F)(F)F)c1` [Compound 6, 4-[[3-(4-fluorophenyl)-5-propyl-1H-1,2,4-triazol-1-yl]methyl]-2-(trifluoromethyl)pyridine] gave a Plant response rating (nightshade; 16 g ai/ha) of 15, a Plant response rating (nightshade; 31 g ai/ha) of 70 and a Plant response rating (nightshade; 62 g ai/ha) of 90. It also gave a Plant response rating (nightshade; 125 g ai/ha) of 100, a Plant response rating (nightshade; 250 g ai/ha) of 100 and a Plant response rating (lambsquarters; 31 g ai/ha) of 70. The Plant response rating (lambsquarters; 62 g ai/ha) was 100, the Plant response rating (lambsquarters; 125 g ai/ha) was 100 and the Plant response rating (lambsquarters; 250 g ai/ha) was 100. For the same molecule, the Plant response rating (arrowleaf sida [6]; 16 g ai/ha) was 0, the Plant response rating (arrowleaf sida [6]; 31 g ai/ha) was 0 and the Plant response rating (arrowleaf sida [6]; 62 g ai/ha) was 10. The Plant response rating (arrowleaf sida [6]; 125 g ai/ha) was 30, the Plant response rating (arrowleaf sida [6]; 250 g ai/ha) was 70 and the Plant response rating (pigweed, palmer; 16 g ai/ha) was 50. For the same molecule, the Plant response rating (pigweed, palmer; 31 g ai/ha) was 75, the Plant response rating (pigweed, palmer; 62 g ai/ha) was 90 and the Plant response rating (pigweed, palmer; 125 g ai/ha) was 100. The Plant response rating (pigweed, palmer; 250 g ai/ha) was 100, the Plant response rating (barnyardgrass [7]; 16 g ai/ha) was 10 and the Plant response rating (barnyardgrass [7]; 31 g ai/ha) was 40. The Plant response rating (barnyardgrass [7]; 62 g ai/ha) was 50, the Plant response rating (barnyardgrass [7]; 125 g ai/ha) was 60 and the Plant response rating (barnyardgrass [7]; 250 g ai/ha) was 75. The Plant response rating (johnsongrass; 31 g ai/ha) was 40, the Plant response rating (johnsongrass; 62 g ai/ha) was 50 and the Plant response rating (johnsongrass; 125 g ai/ha) was 80. The Plant response rating (johnsongrass; 250 g ai/ha) was 100, the Plant response rating (velvetleaf; 16 g ai/ha) was 0 and the Plant response rating (velvetleaf; 31 g ai/ha) was 30. It also gave a Plant response rating (velvetleaf; 62 g ai/ha) of 40, a Plant response rating (velvetleaf; 125 g ai/ha) of 50 and a Plant response rating (velvetleaf; 250 g ai/ha) of 70. The Plant response rating (goosegrass; 16 g ai/ha) was 15, the Plant response rating (goosegrass; 31 g ai/ha) was 50 and the Plant response rating (goosegrass; 62 g ai/ha) was 50. It also gave a Plant response rating (goosegrass; 125 g ai/ha) of 75, a Plant response rating (goosegrass; 250 g ai/ha) of 100 and a Plant response rating (field bindweed [8]; 16 g ai/ha) of 10. It also gave a Plant response rating (field bindweed [8]; 31 g ai/ha) of 10, a Plant response rating (field bindweed [8]; 62 g ai/ha) of 30 and a Plant response rating (field bindweed [8]; 125 g ai/ha) of 50. It also gave a Plant response rating (field bindweed [8]; 250 g ai/ha) of 70.
